According to ChEMBL document CHEMBL3885861, “Open TG-GATES”:

Species on record: Rattus norvegicus
Assay: Open TG-GATES - Regimen: Single
Format: toxicity, organism-based, Sprague-Dawley
Design: regimen Single, gender Male, age 6 weeks
Settings: in vivo, po, 0 mg/kg, route gavage, dose level Control; for APTT / Bas / Eos / Fbg / Hb / Ht / Lym / MCH / MCHC / MCV / Mono / Neu / PT / Plat / RBC / Ret / WBC: tissue Blood; for KIDNEY_L / KIDNEY_R / KIDNEY_TOTAL: tissue Kidney; for LIVER: tissue Liver; for A/G / ALP / ALT / AST / BUN / CRE / Ca / Cl / DBIL / GLC / IP / K / LDH / Na / PL / RALB / TBIL / TC / TG / TP / gamma-GTP: tissue Plasma

CCOC(=O)C(C)(C)Oc1ccc(Cl)cc1 [CLOFIBRATE]
TERMINAL_BW (3 h): 228.9 g
APTT (3 h): 18.8 s
Bas (3 h): 0%
Eos (3 h): 0.8%
Fbg (3 h): 234.6 mg/dL
Hb (3 h): 13.3 g/dL
Ht (3 h): 38.4%
Lym (3 h): 81.8%
MCH (3 h): 21.5 pg
MCHC (3 h): 34.9%
MCV (3 h): 61.6 fL
Mono (3 h): 2.4%
Neu (3 h): 14.4%
PT (3 h): 12.2 s
Plat (3 h): 137.2 x10_4/uL
RBC (3 h): 623.6 x10_4/ul
Ret (3 h): 7.6%
WBC (3 h): 86.9 x10_2/uL
KIDNEY_L (3 h): 0.9 g
KIDNEY_R (3 h): 0.9 g
KIDNEY_TOTAL (3 h): 1.8 g
LIVER (3 h): 10.8 g
A/G (3 h): 1.6
ALP (3 h): 1250.4 IU/L
ALT (3 h): 37.6 IU/L
AST (3 h): 75.6 IU/L
BUN (3 h): 11.6 mg/dL
CRE (3 h): 0.4 mg/dL
Ca (3 h): 11 mg/dL
Cl (3 h): 101.8 meq/L
DBIL (3 h): 0.4 mg/dL
GLC (3 h): 193.4 mg/dL
IP (3 h): 8.4 mg/dL
K (3 h): 3.8 meq/L
LDH (3 h): 218.8 IU/L
Na (3 h): 139 meq/L
PL (3 h): 184 mg/dL
RALB (3 h): 3.6 g/dL
TBIL (3 h): 0.4 mg/dL
TC (3 h): 79.8 mg/dL
TG (3 h): 233.2 mg/dL
TP (3 h): 5.8 g/dL
gamma-GTP (3 h): 1 IU/L
TERMINAL_BW (6 h): 225.4 g
APTT (6 h): 18.9 s
Bas (6 h): 0%
Eos (6 h): 1%
Fbg (6 h): 229.6 mg/dL
Hb (6 h): 13.7 g/dL
Ht (6 h): 39.7%
Lym (6 h): 76.8%
MCH (6 h): 20.9 pg
MCHC (6 h): 34.5%
MCV (6 h): 60.7 fL
Mono (6 h): 3.4%
Neu (6 h): 18.4%
PT (6 h): 12.5 s
Plat (6 h): 131.5 x10_4/uL
RBC (6 h): 654.6 x10_4/ul
Ret (6 h): 7.7%
WBC (6 h): 91.8 x10_2/uL
KIDNEY_L (6 h): 1 g
KIDNEY_R (6 h): 1 g
KIDNEY_TOTAL (6 h): 2 g
LIVER (6 h): 10 g
A/G (6 h): 1.7
ALP (6 h): 1002.8 IU/L
ALT (6 h): 31.2 IU/L
AST (6 h): 67.2 IU/L
BUN (6 h): 8.6 mg/dL
CRE (6 h): 0.3 mg/dL
Ca (6 h): 10.7 mg/dL
Cl (6 h): 103.2 meq/L
DBIL (6 h): 0.1 mg/dL
GLC (6 h): 192.2 mg/dL
IP (6 h): 8.8 mg/dL
K (6 h): 3.9 meq/L
LDH (6 h): 224 IU/L
Na (6 h): 140.4 meq/L
PL (6 h): 157.6 mg/dL
RALB (6 h): 3.5 g/dL
TBIL (6 h): 0.2 mg/dL
TC (6 h): 76.2 mg/dL
TG (6 h): 86 mg/dL
TP (6 h): 5.7 g/dL
gamma-GTP (6 h): 1 IU/L
TERMINAL_BW (9 h): 221.7 g
APTT (9 h): 18.1 s
Bas (9 h): 0%
Eos (9 h): 1%
Fbg (9 h): 234.4 mg/dL
Hb (9 h): 13.4 g/dL
Ht (9 h): 38.5%
Lym (9 h): 73.2%
MCH (9 h): 20.8 pg
MCHC (9 h): 34.9%
MCV (9 h): 59.7 fL
Mono (9 h): 2.6%
Neu (9 h): 22.8%
PT (9 h): 13 s
Plat (9 h): 137.3 x10_4/uL
RBC (9 h): 644.4 x10_4/ul
Ret (9 h): 7.1%
WBC (9 h): 78.9 x10_2/uL
KIDNEY_L (9 h): 0.9 g
KIDNEY_R (9 h): 1 g
KIDNEY_TOTAL (9 h): 1.9 g
LIVER (9 h): 9 g
A/G (9 h): 1.6
ALP (9 h): 1006.6 IU/L
ALT (9 h): 27 IU/L
AST (9 h): 63.6 IU/L
BUN (9 h): 11.2 mg/dL
CRE (9 h): 0.4 mg/dL
Ca (9 h): 10.2 mg/dL
Cl (9 h): 103 meq/L
DBIL (9 h): 0.082 mg/dL
GLC (9 h): 204.6 mg/dL
IP (9 h): 10.2 mg/dL
K (9 h): 3.7 meq/L
LDH (9 h): 223.8 IU/L
Na (9 h): 141.2 meq/L
PL (9 h): 136.8 mg/dL
RALB (9 h): 3.3 g/dL
TBIL (9 h): 0.1 mg/dL
TC (9 h): 64.2 mg/dL
TG (9 h): 68.2 mg/dL
TP (9 h): 5.5 g/dL
gamma-GTP (9 h): 0.8 IU/L
TERMINAL_BW (24 h): 236.7 g
APTT (24 h): 18.6 s
Bas (24 h): 0%
Eos (24 h): 1%
Fbg (24 h): 230.2 mg/dL
Hb (24 h): 13.7 g/dL
Ht (24 h): 39.5%
Lym (24 h): 80.8%
MCH (24 h): 20.7 pg
MCHC (24 h): 34.5%
MCV (24 h): 60 fL
Mono (24 h): 2.4%
Neu (24 h): 15.8%
PT (24 h): 12.5 s
Plat (24 h): 127.3 x10_4/uL
RBC (24 h): 659.8 x10_4/ul
Ret (24 h): 6.3%
WBC (24 h): 75.3 x10_2/uL
KIDNEY_L (24 h): 1 g
KIDNEY_R (24 h): 1 g
KIDNEY_TOTAL (24 h): 2 g
LIVER (24 h): 10.9 g
A/G (24 h): 1.5
ALP (24 h): 1006.2 IU/L
ALT (24 h): 34 IU/L
AST (24 h): 66.4 IU/L
BUN (24 h): 14.4 mg/dL
CRE (24 h): 0.4 mg/dL
Ca (24 h): 10.7 mg/dL
Cl (24 h): 102.2 meq/L
DBIL (24 h): 0.094 mg/dL
GLC (24 h): 191.2 mg/dL
IP (24 h): 7 mg/dL
K (24 h): 3.9 meq/L
LDH (24 h): 198.2 IU/L
Na (24 h): 140 meq/L
PL (24 h): 147.8 mg/dL
RALB (24 h): 3.3 g/dL
TBIL (24 h): 0.2 mg/dL
TC (24 h): 68.4 mg/dL
TG (24 h): 125.4 mg/dL
TP (24 h): 5.5 g/dL
gamma-GTP (24 h): 1 IU/L
